Results: patent US7790947B2 (priority 2001, dated 2010)

How the values were obtained:
[1] = system: TSST-1 toxin production by S. aureus; conditions: cited from earlier work
TSS-1 production = assay: Inhibition of TSS-1 production by salt or acid residue in absorbent foam; type: cell-based, S. aureus; conditions: residual salt or acid in dried foam, between 0.1% and 10% weight percent of foam
hemoglobin = hemoglobin (Homo sapiens, UniProt P68871); conditions: cited from earlier work
TSST-1 toxin = TSST-1 toxin (Staphylococcus aureus, UniProt P06886); conditions: mechanism unknown; cited from earlier work
Chain of TSST-1 toxin (P06886 41-234 limits assumed): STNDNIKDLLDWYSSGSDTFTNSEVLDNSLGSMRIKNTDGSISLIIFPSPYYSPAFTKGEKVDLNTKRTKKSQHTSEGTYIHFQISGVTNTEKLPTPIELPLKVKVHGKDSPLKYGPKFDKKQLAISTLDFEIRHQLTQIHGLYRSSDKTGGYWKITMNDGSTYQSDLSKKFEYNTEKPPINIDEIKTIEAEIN

Chain of hemoglobin (P68871 2-147 limits assumed): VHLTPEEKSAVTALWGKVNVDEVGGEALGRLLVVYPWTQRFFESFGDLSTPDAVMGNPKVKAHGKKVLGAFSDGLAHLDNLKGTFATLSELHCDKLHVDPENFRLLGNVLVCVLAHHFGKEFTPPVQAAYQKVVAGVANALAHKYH
Chain of hemoglobin (P69905 2-142 partner limits assumed): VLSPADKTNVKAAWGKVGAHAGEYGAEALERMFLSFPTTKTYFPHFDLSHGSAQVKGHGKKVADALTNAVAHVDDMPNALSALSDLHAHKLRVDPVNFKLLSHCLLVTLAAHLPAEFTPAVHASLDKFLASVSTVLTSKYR

Q: With tocopherol as the molecule, how does the “effect on toxin (TSST-1) production by S. aureus” value (from here on “effect on toxin”) [1] read?
A: The value was “reduce toxin production and/or deactiviate the toxin TSST-1”.

Q: Which “inhibition of TSS-1 production” value (TSS-1 production) does the source give for [Ca+2].[Cl-].[Cl-] [CaCl2] here?
A: Its value is “inhibit TSS-1 production”.

Q: With O=C(O)C(COP(=O)(O)O)OP(=O)(O)O (stereo not drawn) [BPG, 2,3-bisphosphoglycerate] as the molecule, how does the “lowering of the affinity of oxygen for hemoglobin (factor)” value (hemoglobin) read?
A: The value was 26.

Q: For O=C1O[C@H]([C@@H](O)CO)C([O-])=C1O.[Na+] [sodium ascorbate], which “inhibition of TSS-1 production” value (TSS-1 production) is on record?
A: Its value is “inhibit TSS-1 production”.

Q: Which “inhibition of TSS-1 production” value (TSS-1 production) does the source give for O=C1O[C@H]([C@@H](O)CO)C(O)=C1O [ascorbic acid] here?
A: The value was “inhibit TSS-1 production”.

Q: And the “effect on toxin” value [1]?
A: The value was “reduce toxin production and/or deactiviate the toxin TSST-1”.

Q: What about the “deactivation of the toxin” value (TSST-1 toxin) of the same molecule?
A: Its value is “deactivates the toxin”.

Q: With [Cl-].[Cl-].[Mg+2] [MgCl2] as the molecule, how does the “inhibition of TSS-1 production” value (TSS-1 production) read?
A: The value was “inhibit TSS-1 production”.

Q: For OCC(O)CO [glycerol], which “effect on toxin” value [1] is on record?
A: The value was “reduce toxin production and/or deactiviate the toxin TSST-1”.
